Experiment [1] deals with P. falciparum (CQ-resistant) W2 strain. The experiment is described as follows: In vitro antimalarial SYBR Green I fluorescence assay, Pf W2. It is filed as cell-based. The note with it: Plasmodium falciparum, W2, 72 h, read-out: IC50 Pf W2.
The subject of experiment [2] is P. falciparum (3D7) trophozoite development. The class given is cell-based, Plasmodium falciparum. Conditions: 5 μM, ~24 h treatment from midring stage.
The conditions of experiment [3]: cited from earlier work.

On to `CCN(CC)CCCC(C)Nc1ccnc2cc(Cl)ccc12` (stereo not drawn) [CQ, chloroquine], for which, in experiment [1], the IC50 came to 0.4306 ± 0.00105 µM. For the same compound, in experiment [2], the “hemozoin in the food vacuole / parasite development after treatment” value was “no hemozoin was seen in the food vacuole”. For the same compound, in experiment [3], the “log Kass with heme, reported value” was 5.15.
